Where two headings read alike, the source gives them in different places. Bounds are passed on as bounds.

The values that follow come from patent US8318898B2, “Synthetic peptides for use as inhibitors of neurotransmitter secretion and as inducers of cellular relaxation” (Universite de Lausanne, priority 2005, dated 2012).

Data set [1] has as its system PC12 cells. It is filed as cell-based, rat. The protocol:
[…]. Very little toxicity was present at 24 hours, and cytotoxicity at 48 hours was only slightly greater than at 24 hours. Cytotoxicity generally dipped to approximately 90% live cells when peptides were administered at 500 μM.

The test system of data set [2] is lung fibroblasts. Description: Stressed collagen lattice contraction assay. Type of data set: cell-based, rat. The note with it: peptide 60 minutes before gel release; compared to control gels and L-9K treated gels; preliminary.
Data set [3] relates to smooth muscle cell line (A7r5). The data set can be described thus: Cell contraction/relaxation on silicon sheet, smooth muscle cells. Type of data set: cell-based. The protocol:
Lung biopsy was obtained from a Sprague Dawley rat, divided in small tissue slices, placed in culture dishes, and maintained then in organ culture in Dulbecco's modified Eagle's medium (GibcoBRL, Life Technologie) containing 10% decomplemented fetal bovine serum (FBS) supplemented with 100 U/ml penicillin, 100 μg/ml streptomycin, 4 mM I-glutamine, at 37° C., in 5% CO2. Cells were maintained during 2-3 weeks (2-8 passages), replacing medium frequently. At confluence, cells were detached from the culture dish with 0.125% trypsin-EDTA mixture (Sigma) for 10 minutes at 37° C., resuspended in complete medium, and seeded over silicon-coated tissue culture dishes at 3.5×10^3 cells/cm^2. One to two days after, cells were treated with the appropriate peptide at 10 or 50 μM, and peptide-induced cell contraction/relaxation effect followed for 1-3 hours by live videomicroscopy. A smooth muscle cell line (A7r5) kept in similar conditions was also used to follow the peptide-induced effects on these cells grown over silicon sheet.
Live videomicroscopy was performed under controlled temperature and CO2 conditions using a Zeiss Axiovert 200M (Zeiss, Oberkochem, Germany), equipped with a spinning disk Nipkow confocal head (Yokogawa CSU10), Photometrics CoolSNAP-HQ CCD camera and Metamorph 6.0 acquisition software (Visitron Systems, Puchheim, Germany). […]

Data set [4] concerns the target Recombinant furin (Homo sapiens, UniProt P09958). Description: biochemical. It is filed as biochemical. The protocol: To determine if the peptides described herein have an effect on the activity of PC enzymes which are involved in a condition or disorder such as fibrosis, the effect of the peptides on furin activity in vitro was measured as percent inhibition of cleavage of the furin substrate fluorogenic t-butyloxycarbonyl (Boc)-RVRR-7-amino-4-methylcoumarin (MCA).
All in vitro enzyme studies were performed at room temperature in a final volume of 50-100 μl in 96-well flat-bottom black plates. The buffer consisted of 100 mM HEPES, 1 mM CaCl2, 0.5% TritonX-100, and 1 mM 2-β-mercaptoethanol pH 7.5. Assays were performed using Boc-RVRR-MCA as fluorogenic substrate at 100 μM. Recombinant furin (0.8 U of activity) was incubated with Boc-RVRR-MCA in the presence or absence of varying concentrations of synthetic peptides D-9Rac/am (SEQ ID NO. 15), L-Bel1 (SEQ ID NO. 3), or L-9K (SEQ ID NO. 6). One unit of activity is defined as the amount of furin that can release 1 μmol of MCA from the fluorogenic Boc-RVRR-MCA per min at 30° C. The release of highly fluorescent 7-amino 4-methyl coumarin (MCA) from the Boc-RVRR-MCA was monitored by a spectrofluorometer instrument at excitation and emission wavelengths of 370 nm/460 nm. […]

Data set [5] deals with PC12-ES cells. Description: Evoked neurotransmitter secretion by undifferentiated PC12-ES cells, furin inhibitor and arginine rich peptides. It is filed as cell-based, rat. The note with it: potassium 80 mM, 15 minutes.
The subject of data set [6] is PC12 cells. The data set can be described thus: Inhibition of [3H]norepinephrine neurosecretion by PC12 cells. Conditions: for inhibition of secretion, stability test: 100 μM. Type of data set: cell-based, rat. The protocol: Using the neurosecretion assay described above, peptides fused to the TAT-PTD (L-TAT) were tested for inhibition of neurotransmitters and compared to use of L-TAT alone (SEQ ID NO: 3). In vitro screening for synthetic peptides capable of efficiently and selectively blocking neurotransmitter release in the PC12 cell line grown under defined conditions was performed.
PC12 cells were washed with DMEM-WM (Dulbecco's Modified Eagle Medium (GIBCO cat. no. 31968) completed with 25 units of penicillin and streptomycin each) and loaded for 1-2 h with [^3H] norepinephrine (NE; 0.5 μCi/ml) in DMEM-CM (DMEM-WM complemented with 6% horse serum and 6% fetal calf serum). Cells were washed for 1 h with DMEM-WM, and then washed 2 times at 5-minute intervals. Basal release was determined by a 15-minutes incubation with CaSB-glucose 5 mM K^+ (CaSB-glucose: 140 mM NaCl, 5 mM KCl, 2 mM CaCl2, 11 mM glucose, [pH 7.4]). The peptides were added to the cells at defined concentrations after loading with NE but before induction of secretion. Cells were depolarized with 85 mM K^+ (CaSB-glucose with Na^+ reduced accordingly) for 15 minutes to determine stimulated release. Superfusate (1 ml) was removed to tubes. Adherent cells were solubilized in CaSB-glucose-0.1% Triton (1 ml/well). The quantities of released and non-released radiolabeled neurotransmitter were determined by liquid scintillation counting of cleared superfusates and cell lysates, respectively. Total uptake was calculated by addition of released and retained radioactivity, and the percentage release was as calculated (released counts/total uptake counts)×100. Results were also expressed as percent inhibition of neurosecretion.

Data set [7] deals with rat lung fibroblast (LF). Description: Cell contraction/relaxation on wrinkling silicone substrate, live videomicroscopy. The note with it: 10 μM and 50 μM. It is filed as cell-based. The protocol: To study the effect(s) of the peptides on muscle cells, which associate with neurosecretory cells at neuromuscular junctions, peptides were cultured with rat lung fibroblast (LF) grown over wrinkling substrate (silicon) which can mimic the effects of contraction. These cells have a myofibroblastic phenotype, e.g., production of TGF-β, which make them suitable for cellular contraction/relaxation studies.
Wrinkling silicone substrates were prepared as essentially described previously (Harris, et al., Science. 208:177-179, 1980; Hinz, et al., Mol Biol Cell. 12:2730-41, 2001). Briefly, 50 μl of silicone (poly dimethyl siloxane; 30.000 centistokes, Dow Corning, Midland, Mich.) were deposited onto a 35 mm round glass coverslip at the bottom of a self-made observation chamber, which was centrifuged at 1.000 rpm for 2 minutes to spread the viscous fluid. The silicone surface was then crosslinked by passing it through a Bunsen flame; a flaming time of 1 second produced a surface stiffness that restricted wrinkle formation to fibroblasts with high contractile force (Hinz et al., supra). The polymerized silicone surface was finally coated with 10 μg/ml collagen type I (Sigma) for 2 hours at 37° C. Lung fibroblast cells were seeded at a density of 3.5×10^3 cells/cm^2 and cultured for 1-2 days before the experiment. […]

Chain of Recombinant furin (P09958 108-794): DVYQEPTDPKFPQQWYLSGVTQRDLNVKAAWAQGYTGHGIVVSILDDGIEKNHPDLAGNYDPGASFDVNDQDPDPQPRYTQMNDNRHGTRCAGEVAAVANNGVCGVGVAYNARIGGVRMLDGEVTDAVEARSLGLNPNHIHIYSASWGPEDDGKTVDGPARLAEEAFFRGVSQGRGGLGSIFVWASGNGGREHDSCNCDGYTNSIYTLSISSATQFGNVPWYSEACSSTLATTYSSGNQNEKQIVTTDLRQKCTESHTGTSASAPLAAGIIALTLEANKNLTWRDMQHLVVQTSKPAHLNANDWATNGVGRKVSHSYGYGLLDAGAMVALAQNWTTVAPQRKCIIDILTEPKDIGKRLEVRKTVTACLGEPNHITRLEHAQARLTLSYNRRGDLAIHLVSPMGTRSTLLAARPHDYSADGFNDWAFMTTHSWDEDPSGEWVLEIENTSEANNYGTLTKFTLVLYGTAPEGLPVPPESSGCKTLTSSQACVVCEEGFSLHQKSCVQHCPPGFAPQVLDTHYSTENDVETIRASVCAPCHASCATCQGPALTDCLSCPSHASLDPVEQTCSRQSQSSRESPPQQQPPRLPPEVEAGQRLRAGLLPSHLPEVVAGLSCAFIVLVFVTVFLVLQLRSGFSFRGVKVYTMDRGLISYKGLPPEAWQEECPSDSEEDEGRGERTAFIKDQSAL

On to `N=C(N)NCCC[C@H](NC(=O)CNC(=O)[C@H](Cc1ccc(O)cc1)NC(=O)CN)C(=O)N[C@@H](CCCCN)C(=O)N[C@@H](CCCCN)C(=O)N[C@@H](CCCNC(=N)N)C(=O)N[C@@H](CCCNC(=N)N)C(=O)N[C@@H](CCC(N)=O)C(=O)N[C@@H](CCCNC(=N)N)C(=O)N[C@@H](CCCNC(=N)N)C(=O)N[C@@H](CCCNC(=N)N)C(=O)NCC(=O)O` [L-Tat], for which, in data set [1], the “cytotoxicity (MTT)” value is “no marked cytotoxicity”. For the same compound, in data set [2], the “myofibroblast-mediated collagen gel contraction” value was “decrease”. For the same compound, the “relaxing effect on smooth muscle cells” value in data set [3] was “same effect”. Moreover, the “concentration for complete blockade of cleavage of Boc-RVRR-MCA by furin” value in data set [4] was found to be 3.5 µM. In addition, the “inhibition of in vitro furin activity (in words)” value in data set [4] (Boc-RVRR-MCA 100 μM as substrate) is “inhibited to completion”. Moreover, in data set [4] (furin, Boc-RVRR-MCA substrate, read-out: Ki(app)), the Ki worked out at 370 nM. In addition, the “inhibition of evoked neurotransmitter secretion by PC12-ES cells” value in data set [5] (10 μM) was found to be 24.6%; in data set [5] (100 μM), 56.4%. Besides, the “dose dependence of inhibition of neurosecretion” value is given as “dose dependent inhibition” in data set [6] and “dose dependent” in data set [6] (listed as L-Bel1). For the same compound, the “inhibition of secretion, stability test” value was 50% in data set [6] (0 hours); 38% in data set [6] (1 hour); 35% in data set [6] (24 hours); 39% in data set [6] (48 hours); 65% in data set [6] (No Serum). Also, the “inhibition of PC12 neurotransmitter secretion” value is given as above 20% in data set [6] (peptide 10 μM); 50% in data set [6] (peptide 50 μM); 55% in data set [6] (peptide 100 μM); “more than 60%” in data set [6] (peptide 100 μM, listed as L-Bel1); 70% in data set [6] (peptide 250 μM). Further, in data set [7], the “relaxing effect on lung myofibroblasts on silicon substrate” value is “slow but constant loss of silicon substrate wrinkles and cell detachment”.
